Data on 26 molecules can be found in patent US20260297070A1, “CYCLIC [COMPOUND LEFT OUT] WRN INHIBITORS” (Nimbus Wadjet, Inc., priority 2023, published 2026).

For this assay, the target named is T1, human Werner helicase (WRN-BV08, Uniprot Q14191, amino acids 517-1235 with L1074F point mutation) (Homo sapiens, UniProt Q14191, L1074F).
T1 construct: Uniprot Q14191, amino acids 517-1235 with L1074F point mutation; TEV-cleavable 8×His (C, cleaved yes); made in house; host or cells: Sf9 insect cells (baculovirus)
T1 sequence (Q14191 with tags, fused parts or gaps L1074F limits assumed): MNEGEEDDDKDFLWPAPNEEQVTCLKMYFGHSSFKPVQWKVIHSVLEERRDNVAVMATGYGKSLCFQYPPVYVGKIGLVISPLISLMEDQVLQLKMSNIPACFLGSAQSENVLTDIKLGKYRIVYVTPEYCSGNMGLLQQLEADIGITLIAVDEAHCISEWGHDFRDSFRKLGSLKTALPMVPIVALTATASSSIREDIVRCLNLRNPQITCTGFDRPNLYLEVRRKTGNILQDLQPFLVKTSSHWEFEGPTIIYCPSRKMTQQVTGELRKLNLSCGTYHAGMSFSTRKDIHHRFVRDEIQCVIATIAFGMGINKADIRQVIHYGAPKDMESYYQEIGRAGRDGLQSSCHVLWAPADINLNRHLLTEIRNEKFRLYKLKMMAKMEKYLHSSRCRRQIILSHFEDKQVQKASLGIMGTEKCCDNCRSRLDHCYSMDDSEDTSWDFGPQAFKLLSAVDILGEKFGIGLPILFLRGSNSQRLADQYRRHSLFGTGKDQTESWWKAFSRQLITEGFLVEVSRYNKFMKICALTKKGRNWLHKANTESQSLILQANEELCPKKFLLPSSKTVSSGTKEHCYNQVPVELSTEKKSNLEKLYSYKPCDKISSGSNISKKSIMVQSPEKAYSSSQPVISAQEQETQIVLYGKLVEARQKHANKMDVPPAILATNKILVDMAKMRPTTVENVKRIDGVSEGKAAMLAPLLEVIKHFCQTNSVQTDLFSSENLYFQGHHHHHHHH
The assay can be described thus: WRN (BV08) ADP-Glo Assay. The following applies: 0.15 nM WRN, 5 μM ATP, 0.1 nM DNA duplex, 15 min preincubation, 60 min at 25° C., pH 7.5, 1% DMSO; read-out: ADP-Glo_hWRN_IC50. It is filed as biochemical. In outline: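 Untagged WRN (Sf9-expressed, TEV-cleaved) at 0.15 nM was preincubated 15 min at 25 °C with compound, then reacted 60 min at 25 °C with 5 μM ATP and 0.1 nM DNA duplex in Bicine pH 7.5, 1 mM MgCl2. ADP-Glo luminescence gave % inhibition; IC50 by four-parameter fit.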
On to `O=C(Cc1ccc(-n2cccc2)cc1)N(C1C=CS(=O)(=O)C1)[C@H]1CCOc2ccccc21` (stereo partly drawn) [I-550, N-[(4S)-3,4-dihydro-2H-1-benzopyran-4-yl]-N-(1,1-dioxo-2,3-dihydro-1lambda6-thiophen-3-yl)-2-[4-(1H-pyrrol-1-yl)phenyl]acetamide], for which the IC50 is more than 50 µM.

Regarding `O=C(C1Cc2ccc(-n3cccc3)cc2C1)N(Cc1ccncc1)C1C=CS(=O)(=O)C1` (centres unmarked) [I-422, N-(1,1-dioxo-2,3-dihydro-1lambda6-thiophen-3-yl)-N-[(pyridin-4-yl)methyl]-5-(1H-pyrrol-1-yl)-2,3-dihydro-1H-indene-2-carboxamide], the IC50 was more than 50 µM.

With `CC(C(=O)N(Cc1ccnc(C(C)(C)O)c1)C1C=CS(=O)(=O)C1)n1cc(-c2ccc(C(F)(F)F)cc2)cn1` (single isomer, unassigned) [I-774, (2R*)-N-[(3R**)-1,1-dioxo-2,3-dihydro-1lambda6-thiophen-3-yl]-N-{[2-(2-hydroxypropan-2-yl)pyridin-4-yl]methyl}-2-{4-[4-(trifluoromethyl)phenyl]-1H-pyrazol-1-yl}propanamide], the IC50 is 10 to 50 µM.

For `O=C(Cc1ccc(Oc2ccccc2)cc1)N(Cc1ccncc1)C1C=CS(=O)(=O)C1` (centres unmarked) [I-503, N-(1,1-dioxo-2,3-dihydro-1lambda6-thiophen-3-yl)-2-(4-phenoxyphenyl)-N-[(pyridin-4-yl)methyl]acetamide], the IC50 was more than 50 µM.

`O=C(Cc1ccc(-n2cccc2)c(F)c1)N(Cc1ccncc1)C1C=CS(=O)(=O)C1` (centres unmarked) [I-327, N-(1,1-dioxo-2,3-dihydro-1lambda6-thiophen-3-yl)-2-[3-fluoro-4-(1H-pyrrol-1-yl)phenyl]-N-[(pyridin-4-yl)methyl]acetamide]: the IC50 is 10 to 50 µM.

Regarding `COc1cc(CN(C(=O)C(OC2CCN(S(C)(=O)=O)CC2)c2ccc(-c3ccc(F)c(F)c3)cc2F)[C@@H]2C=CS(=O)(=O)C2)ccn1` (stereo partly drawn) [I-687, N-[(3R)-1,1-dioxo-2,3-dihydro-1lambda6-thiophen-3-yl]-2-[(1-methanesulfonylpiperidin-4-yl)oxy]-N-[(2-methoxypyridin-4-yl)methyl]-2-{3,3′,4′-trifluoro-[1,1′-biphenyl]-4-yl}acetamide], the IC50 lay in the range of 5 to 10 µM.

Regarding `CC(C(=O)N(Cc1ccnc(C(C)(C)O)c1)[C@@H]1C=CS(=O)(=O)C1)n1cc(-c2ccc(F)cc2)cn1` (stereo partly drawn) [I-106, N-[(3R)-1,1-dioxo-2,3-dihydro-1lambda6-thiophen-3-yl]-2-[4-(4-fluorophenyl)-1H-pyrazol-1-yl]-N-{[2-(2-hydroxypropan-2-yl)pyridin-4-yl]methyl}propanamide], the IC50 lay within 0.5 to 5 µM.

`O=C(Cc1cccc(C2CC2)c1)N(Cc1ccncc1)C1C=CS(=O)(=O)C1` (centres unmarked) [I-437, 2-(3-cyclopropylphenyl)-N-(1,1-dioxo-2,3-dihydro-1lambda6-thiophen-3-yl)-N-[(pyridin-4-yl)methyl]acetamide]: the IC50 is more than 50 µM.

For the molecule `O=C(c1ccc(CN(C(=O)Cc2ccc(-c3ccc(F)c(F)c3)cc2F)C2C=CS(=O)(=O)C2)cc1)N1CCOCC1` (centres unmarked) [I-780, N-(1,1-dioxo-2,3-dihydro-1lambda6-thiophen-3-yl)-N-{[4-(morpholine-4-carbonyl)phenyl]methyl}-2-{3,3′,4′-trifluoro-[1,1′-biphenyl]-4-yl}acetamide], the IC50 lay in the range of 0.5 to 5 µM.

Turning to `COc1cc(CN(C(=O)C(OC)c2ccc(-c3ccc(F)cc3)cc2F)C2C=CS(=O)(=O)C2)ccn1` (single isomer, unassigned) [I-405, (2R*)-2-{3,4′-difluoro-[1,1′-biphenyl]-4-yl}-N-[(3R**)-1,1-dioxo-2,3-dihydro-1lambda6-thiophen-3-yl]-2-methoxy-N-[(2-methoxypyridin-4-yl)methyl]acetamide], the IC50 was more than 50 µM.

For `O=C(Cn1cc(-c2ccccc2)nn1)N(Cc1ccncc1)C1C=CS(=O)(=O)C1` (centres unmarked) [I-403, N-(1,1-dioxo-2,3-dihydro-1lambda6-thiophen-3-yl)-2-(4-phenyl-1H-1,2,3-triazol-1-yl)-N-[(pyridin-4-yl)methyl]acetamide], the IC50 was more than 50 µM.

For the molecule `CCN(CC)C(=O)C(C(=O)N(Cc1ccnc(C(C)(C)O)c1)C1C=CS(=O)(=O)C1)c1ccc(-c2ccc(F)c(F)c2)cc1F` (centres unmarked) [I-62, N′-(1,1-dioxo-2,3-dihydro-1lambda6-thiophen-3-yl)-N,N-diethyl-N′-{[2-(2-hydroxypropan-2-yl)pyridin-4-yl]methyl}-2-{3,3′,4′-trifluoro-[1,1′-biphenyl]-4-yl}propanediamide], the IC50 was less than 0.5 µM.

Consider `O=C(Cc1ccc(S(F)(F)(F)(F)F)cc1)N(Cc1cnoc1)C1C=CS(=O)(=O)C1` (centres unmarked) [I-648, N-(1,1-dioxo-2,3-dihydro-1lambda6-thiophen-3-yl)-N-[(1,2-oxazol-4-yl)methyl]-2-[4-(pentafluoro-lambda6-sulfanyl)phenyl]acetamide], for which the IC50 lay in the range of 5 to 10 µM.

For the molecule `C#CCCCC(=O)N1CCN(C(=O)c2ccc(CN(C(=O)Cc3ccc(-n4cccc4)cc3F)C3C=CS(=O)(=O)C3)cc2)CC1` (centres unmarked) [I-229, N-(1,1-dioxo-2,3-dihydro-1lambda6-thiophen-3-yl)-2-[2-fluoro-4-(1H-pyrrol-1-yl)phenyl]-N-({4-[4-(hex-5-ynoyl)piperazine-1-carbonyl]phenyl}methyl)acetamide], the IC50 was in the range of 5 to 10 µM.

Regarding `CC(C)(O)c1cc(CN(C(=O)Cc2ccc(-c3cc(F)c(F)c(F)c3)cc2F)C2C=CS(=O)(=O)C2)ccn1` (centres unmarked) [I-19, N-(1,1-dioxo-2,3-dihydro-1lambda6-thiophen-3-yl)-N-{[2-(2-hydroxypropan-2-yl)pyridin-4-yl]methyl}-2-{3,3′,4′,5′-tetrafluoro-[1,1′-biphenyl]-4-yl}acetamide], the IC50 was less than 0.5 µM.

Regarding `O=C(C1CC(c2ccccc2)C1)N(Cc1ccncc1)C1C=CS(=O)(=O)C1` (centres unmarked) [I-570, N-(1,1-dioxo-2,3-dihydro-1lambda6-thiophen-3-yl)-3-phenyl-N-[(pyridin-4-yl)methyl]cyclobutane-1-carboxamide], the IC50 was more than 50 µM.

For the molecule `CC(C)C(=O)NC(Cc1c[nH]c2ccccc12)C(=O)N(Cc1ccncc1)C1C=CS(=O)(=O)C1` (centres unmarked) [I-559, N-(1,1-dioxo-2,3-dihydro-1lambda6-thiophen-3-yl)-3-(1H-indol-3-yl)-2-(2-methylpropanamido)-N-[(pyridin-4-yl)methyl]propanamide], the IC50 was more than 50 µM.

Consider `CC(C)(O)c1ccc(CN(C(=O)Cc2ccc(S(F)(F)(F)(F)F)cc2)C2C=CS(=O)(=O)C2)cc1` (centres unmarked) [I-623, N-(1,1-dioxo-2,3-dihydro-1lambda6-thiophen-3-yl)-N-{[4-(2-hydroxypropan-2-yl)phenyl]methyl}-2-[4-(pentafluoro-lambda6-sulfanyl)phenyl]acetamide], for which the IC50 lay in the range of 0.5 to 5 µM.

With `COC(C(=O)N(Cc1ccncc1)C1C=CS(=O)(=O)C1)c1ccc(-c2ccc(C)cc2)cc1` (centres unmarked) [I-356, N-(1,1-dioxo-2,3-dihydro-1lambda6-thiophen-3-yl)-2-methoxy-2-{4′-methyl-[1,1′-biphenyl]-4-yl}-N-[(pyridin-4-yl)methyl]acetamide], the IC50 lay in the range of 10 to 50 µM.

For `COc1cc(CN(C(=O)C(c2ccc(-c3ccc(F)c(F)c3)cc2F)n2ccc(C)n2)[C@@H]2C=CS(=O)(=O)C2)ccn1` (single isomer, unassigned) [I-750, (2R*)-N-[(3R)-1,1-dioxo-2,3-dihydro-1lambda6-thiophen-3-yl]-N-[(2-methoxypyridin-4-yl)methyl]-2-(3-methyl-1H-pyrazol-1-yl)-2-{3,3′,4′-trifluoro-[1,1′-biphenyl]-4-yl}acetamide], the IC50 is less than 0.5 µM.

Take `CN(C)C(=O)C(C(=O)N(Cc1ccnc(C(C)(C)O)c1)C1C=CS(=O)(=O)C1)c1ccc(-c2ccc(F)cc2)cc1` (single isomer, unassigned) [I-309, (2R**)-N-[(3R*)-1,1-dioxo-2,3-dihydro-1lambda6-thiophen-3-yl]-2-{4′-fluoro-[1,1′-biphenyl]-4-yl}-N-{[2-(2-hydroxypropan-2-yl)pyridin-4-yl]methyl}-N′,N′-dimethylpropanediamide]: the IC50 fell in the range of 10 to 50 µM.

As for `COc1cc(CN(C(=O)Cc2ccc(C(F)(F)F)cc2)C2C=CS(=O)(=O)C2)ccn1` (centres unmarked) [I-105, N-(1,1-dioxo-2,3-dihydro-1lambda6-thiophen-3-yl)-N-[(2-methoxypyridin-4-yl)methyl]-2-[4-(trifluoromethyl)phenyl]acetamide], the IC50 is 0.5 to 5 µM.

Consider `COc1cc(CN(C(=O)C(OCCC#N)c2ccc(-c3ccc(F)c(F)c3)cc2F)[C@@H]2C=CS(=O)(=O)C2)ccn1` (single isomer, unassigned) [I-735, (2R*)-2-(2-cyanoethoxy)-N-[(3R)-1,1-dioxo-2,3-dihydro-1lambda6-thiophen-3-yl]-N-[(2-methoxypyridin-4-yl)methyl]-2-{3,3′,4′-trifluoro-[1,1′-biphenyl]-4-yl}acetamide], for which the IC50 lay within 0.5 to 5 µM.

As to `O=C(Cc1ccn(-c2ccc(F)cc2)n1)N(Cc1ccncc1)C1C=CS(=O)(=O)C1` (centres unmarked) [I-394, N-(1,1-dioxo-2,3-dihydro-1lambda6-thiophen-3-yl)-2-[1-(4-fluorophenyl)-1H-pyrazol-3-yl]-N-[(pyridin-4-yl)methyl]acetamide], the IC50 is more than 50 µM.

Take `CC(C)(O)c1cc(CN(C(=O)Cc2ccc(S(F)(F)(F)(F)F)cc2F)C2C=CS(=O)(=O)C2)ccn1` (centres unmarked) [I-44, N-(1,1-dioxo-2,3-dihydro-1lambda6-thiophen-3-yl)-2-[2-fluoro-4-(pentafluoro-lambda6-sulfanyl)phenyl]-N-{[2-(2-hydroxypropan-2-yl)pyridin-4-yl]methyl}acetamide]: the IC50 is less than 0.5 µM.

As to `COc1cc(CN(C(=O)Cc2ccc(-n3cccc3C)cc2F)[C@@H]2C=CS(=O)(=O)C2)ccn1` [I-56, N-[(3R)-1,1-dioxo-2,3-dihydro-1lambda6-thiophen-3-yl]-2-[2-fluoro-4-(2-methyl-1H-pyrrol-1-yl)phenyl]-N-[(2-methoxypyridin-4-yl)methyl]acetamide], the IC50 was less than 0.5 µM.
